The source of these data is PubChem BioAssay (NCI).

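Cultured in 96-well plates, cells were exposed to test compound for 48 hours across five concentrations. The concentration for 50% growth inhibition is given as GI50. The concentration for full growth arrest is given as TGI.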 Where only a bound is given, the exact number is not on record here.

Some test systems named below: SW-620 colon; RXF 393 renal; HCT-116 colon; HOP-62 NSCLC; LOX IMVI melanoma; NCI-H226 lung; SF-539 CNS; NCI-H23 lung; MALME-3M melanoma.
Common to all, as to test: growth of human tumour cells (NCI), 48 h

As for `CC1(C)OCC(C2OC(On3nnc4ccc(Cl)cc43)C3OC(C)(C)OC23)O1` (stereo not drawn), the TGI with SW-620 colon, with RXF 393 renal, with HCT-116 colon, in the test with HOP-62 NSCLC, with LOX IMVI melanoma and in the test on NCI-H226 lung was more than 100 µM each time. Besides, the TGI in the test on SF-539 CNS, with NCI-H23 lung and in the test on MALME-3M melanoma was more than 100 µM each time.
With `O=S(=O)(Nc1ccc2ccc3cccc4ccc1c2c34)c1ccccc1`, the TGI in the test with SW-620 colon, in the test with RXF 393 renal, with HCT-116 colon, with HOP-62 NSCLC, in the test on LOX IMVI melanoma and in the test on NCI-H226 lung was more than 100 µM each time. In addition, the TGI with SF-539 CNS, in the test with NCI-H23 lung and in the test with MALME-3M melanoma was more than 100 µM each time.
As to `Oc1ccc(-c2nc(-c3ccc(F)cc3)c(-c3ccncc3)[nH]2)cc1`, the GI50 in the test with SW-620 colon is 32.1 µM; in the test with RXF 393 renal it was 8.92 µM; in the test on HCT-116 colon it was 17.4 µM; with HOP-62 NSCLC, 36.7 µM; with LOX IMVI melanoma, 28.6 µM; with NCI-H226 lung it was 28.3 µM. The GI50 is 25.7 µM in the test with SF-539 CNS, 36.2 µM in the test on NCI-H23 lung and 2.45 µM in the test on MALME-3M melanoma. Further, the TGI is more than 100 µM with SW-620 colon; 43.2 µM in the test on RXF 393 renal; 53 µM in the test with HCT-116 colon; more than 100 µM with HOP-62 NSCLC; more than 100 µM with LOX IMVI melanoma; more than 100 µM in the test on NCI-H226 lung. Also, the figures for the TGI in the test on SF-539 CNS, in the test on NCI-H23 lung and with MALME-3M melanoma were more than 100 µM, more than 100 µM and 9.13 µM, respectively.
As for `CC1=C(C(=O)Nc2cc(F)c(F)cc2F)C(c2cccc([N+](=O)[O-])c2)C(C(=O)Nc2ccccc2C(F)(F)F)=C(C)N1` (stereo not drawn), the TGI was 87.1 µM in the test with SW-620 colon; 46.2 µM with RXF 393 renal; 54.5 µM in the test with HOP-62 NSCLC; 39.4 µM with LOX IMVI melanoma; 74.7 µM in the test on NCI-H226 lung; 53.1 µM with SF-539 CNS. Moreover, the TGI with NCI-H23 lung is 46.5 µM; in the test on MALME-3M melanoma, 77.8 µM.
For `COc1cc2c(cc1OCCCN1CCN(CCCOc3cc4c(cc3OC)C(=O)C3CCC[C@H]3C=N4)CC1)N=C[C@@H]1CCCC1C2=O` (stereo partly drawn), the GI50 was 1.19 µM in the test with SW-620 colon; 3 µM in the test on RXF 393 renal; 12.1 µM in the test with HCT-116 colon; 4.78 µM in the test on HOP-62 NSCLC; 3.65 µM with LOX IMVI melanoma; 13.2 µM with NCI-H226 lung. The figures for the GI50 with SF-539 CNS, in the test on NCI-H23 lung and in the test with MALME-3M melanoma were 0.614 µM, 5.42 µM and 2.83 µM, respectively. Further, the TGI was more than 35 µM with SW-620 colon; 17.5 µM with RXF 393 renal; more than 100 µM in the test with HCT-116 colon; more than 100 µM with HOP-62 NSCLC; more than 60.7 µM in the test with LOX IMVI melanoma; more than 100 µM in the test with NCI-H226 lung. Further, the figures for the TGI in the test with SF-539 CNS, in the test with NCI-H23 lung and with MALME-3M melanoma were 16.4 µM, 14.1 µM and 21.5 µM, respectively.
Regarding `COC12c3ccccc3-c3ccccc3C1[C@@H](C(=O)O)[C@H]2C(=O)O` (stereo partly drawn), the TGI with SW-620 colon, in the test on RXF 393 renal, with HOP-62 NSCLC, in the test on LOX IMVI melanoma, in the test with NCI-H226 lung and in the test with SF-539 CNS was more than 10 µM throughout. The TGI in the test on NCI-H23 lung and with MALME-3M melanoma was more than 10 µM in each case.
Turning to `Nc1nccc(C#Cc2cncnc2Nc2ccc(OCc3cccc(F)c3)c(Cl)c2)n1`, the GI50 with SW-620 colon was 3 µM; in the test on RXF 393 renal it was 4.02 µM; in the test with HCT-116 colon, 3.48 µM; in the test on HOP-62 NSCLC it was 4.93 µM; in the test with LOX IMVI melanoma, 1.72 µM; with NCI-H226 lung, 4.14 µM. Besides, the GI50 is 5.58 µM in the test with SF-539 CNS, 4.22 µM in the test with NCI-H23 lung and 5.26 µM with MALME-3M melanoma. Moreover, the TGI in the test on SW-620 colon came out at 7.66 µM; in the test on RXF 393 renal, 8.9 µM; with HCT-116 colon, 7.43 µM; in the test on HOP-62 NSCLC, 9.17 µM; in the test on LOX IMVI melanoma, 6.01 µM; in the test on NCI-H226 lung, 7.83 µM. Further, the TGI in the test with SF-539 CNS is 14.1 µM; in the test with NCI-H23 lung it was 8.92 µM; in the test on MALME-3M melanoma, 13.1 µM.
Turning to `O=C(NCCS(=O)(=O)N1C(=O)C2CCCN2C(=O)[C@@H]1Cc1ccccc1)OCc1ccccc1` (stereo partly drawn), the TGI in the test with SW-620 colon, in the test with RXF 393 renal, in the test with HCT-116 colon, in the test on HOP-62 NSCLC, in the test on LOX IMVI melanoma and with NCI-H226 lung was more than 100 µM each time. Besides, the TGI with SF-539 CNS, in the test with NCI-H23 lung and in the test on MALME-3M melanoma was more than 100 µM throughout.
For `O=C1c2cccnc2-c2nc(-c3ccccc3)cc3c2c1nc1ccccc13`, the GI50 is 2.56 µM in the test on SW-620 colon; 16 µM with RXF 393 renal; 1.91 µM in the test with HCT-116 colon; 14.5 µM in the test on HOP-62 NSCLC; 6.37 µM in the test on LOX IMVI melanoma; 9.39 µM in the test on NCI-H226 lung. Also, the values for the GI50 with SF-539 CNS, in the test on NCI-H23 lung and with MALME-3M melanoma were 17.8 µM, 1.73 µM and 3.38 µM, respectively. The TGI with SW-620 colon is more than 35.2 µM; with RXF 393 renal, 32.3 µM; with HCT-116 colon it was 7.2 µM; with HOP-62 NSCLC it was 28.3 µM; in the test with LOX IMVI melanoma, 32.6 µM; with NCI-H226 lung, 24.1 µM. The TGI with SF-539 CNS was determined as 43.3 µM; in the test with NCI-H23 lung, 7.48 µM; in the test with MALME-3M melanoma it was 16.1 µM.
Take `Cn1cccc1C1CC(=O)N(CCC[Se]C#N)C1=O` (stereo not drawn): the GI50 in the test with SW-620 colon is 3.26 µM; with RXF 393 renal, 1.74 µM; with HCT-116 colon, 2.34 µM; in the test on HOP-62 NSCLC, 1.88 µM; in the test with LOX IMVI melanoma it was 1.88 µM; in the test on NCI-H226 lung, 1.62 µM. Also, the GI50 in the test on SF-539 CNS is 1.96 µM; in the test on NCI-H23 lung, 2.6 µM; in the test on MALME-3M melanoma it was 1.89 µM. The TGI is 11.8 µM in the test on SW-620 colon; 3.43 µM in the test on RXF 393 renal; 6.27 µM in the test on HCT-116 colon; 3.77 µM with HOP-62 NSCLC; 4.28 µM in the test with LOX IMVI melanoma; 4.3 µM in the test with NCI-H226 lung. Further, the TGI with SF-539 CNS turned out to be 3.66 µM; with NCI-H23 lung, 7.88 µM; with MALME-3M melanoma, 4.12 µM.
